Source: US20200078303A1, “PHARMACEUTICAL FORMULATIONS OF SUVOREXANT” (Druggability Technologies IP HoldCo Ltd., priority 2016, published 2020)

Columns and labels:
[1] = cited from earlier work
human plasma proteins = conditions: cited from earlier work
[2] = Rat oral pharmacokinetics at 3 mg/kg; type: in vivo; conditions: fasted rats
Procedure: A rat study with oral administration at 3 mg/kg was performed. Two pharmaceutical formulations of the present invention, the crystalline compound and crushed BELSOMRA® tablets were administered and plasma concentrations were measured. Absorption following the administration of the pharmaceutical formulations of the present invention was immediate, while absorption for the crystalline and BELSOMRA® were slower.

Row | Structure (SMILES) | mean absolute bioavailability ([1]; 10 mg) | mean t½ ([1]; 95% CI: 12 to 13) | median tmax ([1]; fasted conditions) | tmax range ([1]; fasted conditions) | change in AUC or Cmax with high-fat meal ([1]; high-fat meal) | delay in tmax with high-fat meal ([1]; high-fat meal) | mean volume of distribution ([1]; human, in vivo) | radiolabeled dose recovered in the feces ([1]; human, in vivo) | radiolabeled dose recovered in the urine ([1]; human, in vivo) | accumulation ([1]; once-daily dosing) | time to steady-state ([1]; once-daily dosing) | dose proportionality of exposure ([1]; range of 10-80 mg) | bound to human plasma proteins (human plasma proteins) | absorption after oral administration (in words) [2]
1 | Cc1ccc(-n2nccn2)c(C(=O)N2CCN(c3nc4cc(Cl)ccc4o3)CC[C@H]2C)c1 [Suvorexant, [(7R)-4-(5-chloro-2-benzoxazolyl)hexahydro-7-methyl-1H-1,4-diazepin-1-yl][5-methyl-2-(2H-1,2,3-triazol-2-yl)phenyl]methanone] | 82% | approximately 12 hours | 2 h | 0.5 to 6 h | no meaningful change | approximately 1.5 hours | approximately 49 liters | approximately 66% | 23% | 1- to 2 fold | ≤ 3 days | less than strictly dose-proportional | > 99% | 
2 | Cc1ccc(-n2nccn2)c(C(=O)N2CCN(c3nc4cc(Cl)ccc4o3)CC[C@H]2C)c1 [crystalline compound] |  |  |  |  |  |  |  |  |  |  |  |  |  | slower
